Earlier results on 1 molecule are cited in patent publication EP2537519A1, “NEUROPATHIC PAIN ALLEVIATING AGENT” (HBC Science Laboratory Co., Ltd, priority 2010, dated 2011).

Each structure is given as a SMILES string.

The target of the data set is Cav3.2 (Homo sapiens, UniProt O95180). To be noted: reported by Nelson et al., J Neurosci 2007.
Sequence of Cav3.2 (O95180 whole entry): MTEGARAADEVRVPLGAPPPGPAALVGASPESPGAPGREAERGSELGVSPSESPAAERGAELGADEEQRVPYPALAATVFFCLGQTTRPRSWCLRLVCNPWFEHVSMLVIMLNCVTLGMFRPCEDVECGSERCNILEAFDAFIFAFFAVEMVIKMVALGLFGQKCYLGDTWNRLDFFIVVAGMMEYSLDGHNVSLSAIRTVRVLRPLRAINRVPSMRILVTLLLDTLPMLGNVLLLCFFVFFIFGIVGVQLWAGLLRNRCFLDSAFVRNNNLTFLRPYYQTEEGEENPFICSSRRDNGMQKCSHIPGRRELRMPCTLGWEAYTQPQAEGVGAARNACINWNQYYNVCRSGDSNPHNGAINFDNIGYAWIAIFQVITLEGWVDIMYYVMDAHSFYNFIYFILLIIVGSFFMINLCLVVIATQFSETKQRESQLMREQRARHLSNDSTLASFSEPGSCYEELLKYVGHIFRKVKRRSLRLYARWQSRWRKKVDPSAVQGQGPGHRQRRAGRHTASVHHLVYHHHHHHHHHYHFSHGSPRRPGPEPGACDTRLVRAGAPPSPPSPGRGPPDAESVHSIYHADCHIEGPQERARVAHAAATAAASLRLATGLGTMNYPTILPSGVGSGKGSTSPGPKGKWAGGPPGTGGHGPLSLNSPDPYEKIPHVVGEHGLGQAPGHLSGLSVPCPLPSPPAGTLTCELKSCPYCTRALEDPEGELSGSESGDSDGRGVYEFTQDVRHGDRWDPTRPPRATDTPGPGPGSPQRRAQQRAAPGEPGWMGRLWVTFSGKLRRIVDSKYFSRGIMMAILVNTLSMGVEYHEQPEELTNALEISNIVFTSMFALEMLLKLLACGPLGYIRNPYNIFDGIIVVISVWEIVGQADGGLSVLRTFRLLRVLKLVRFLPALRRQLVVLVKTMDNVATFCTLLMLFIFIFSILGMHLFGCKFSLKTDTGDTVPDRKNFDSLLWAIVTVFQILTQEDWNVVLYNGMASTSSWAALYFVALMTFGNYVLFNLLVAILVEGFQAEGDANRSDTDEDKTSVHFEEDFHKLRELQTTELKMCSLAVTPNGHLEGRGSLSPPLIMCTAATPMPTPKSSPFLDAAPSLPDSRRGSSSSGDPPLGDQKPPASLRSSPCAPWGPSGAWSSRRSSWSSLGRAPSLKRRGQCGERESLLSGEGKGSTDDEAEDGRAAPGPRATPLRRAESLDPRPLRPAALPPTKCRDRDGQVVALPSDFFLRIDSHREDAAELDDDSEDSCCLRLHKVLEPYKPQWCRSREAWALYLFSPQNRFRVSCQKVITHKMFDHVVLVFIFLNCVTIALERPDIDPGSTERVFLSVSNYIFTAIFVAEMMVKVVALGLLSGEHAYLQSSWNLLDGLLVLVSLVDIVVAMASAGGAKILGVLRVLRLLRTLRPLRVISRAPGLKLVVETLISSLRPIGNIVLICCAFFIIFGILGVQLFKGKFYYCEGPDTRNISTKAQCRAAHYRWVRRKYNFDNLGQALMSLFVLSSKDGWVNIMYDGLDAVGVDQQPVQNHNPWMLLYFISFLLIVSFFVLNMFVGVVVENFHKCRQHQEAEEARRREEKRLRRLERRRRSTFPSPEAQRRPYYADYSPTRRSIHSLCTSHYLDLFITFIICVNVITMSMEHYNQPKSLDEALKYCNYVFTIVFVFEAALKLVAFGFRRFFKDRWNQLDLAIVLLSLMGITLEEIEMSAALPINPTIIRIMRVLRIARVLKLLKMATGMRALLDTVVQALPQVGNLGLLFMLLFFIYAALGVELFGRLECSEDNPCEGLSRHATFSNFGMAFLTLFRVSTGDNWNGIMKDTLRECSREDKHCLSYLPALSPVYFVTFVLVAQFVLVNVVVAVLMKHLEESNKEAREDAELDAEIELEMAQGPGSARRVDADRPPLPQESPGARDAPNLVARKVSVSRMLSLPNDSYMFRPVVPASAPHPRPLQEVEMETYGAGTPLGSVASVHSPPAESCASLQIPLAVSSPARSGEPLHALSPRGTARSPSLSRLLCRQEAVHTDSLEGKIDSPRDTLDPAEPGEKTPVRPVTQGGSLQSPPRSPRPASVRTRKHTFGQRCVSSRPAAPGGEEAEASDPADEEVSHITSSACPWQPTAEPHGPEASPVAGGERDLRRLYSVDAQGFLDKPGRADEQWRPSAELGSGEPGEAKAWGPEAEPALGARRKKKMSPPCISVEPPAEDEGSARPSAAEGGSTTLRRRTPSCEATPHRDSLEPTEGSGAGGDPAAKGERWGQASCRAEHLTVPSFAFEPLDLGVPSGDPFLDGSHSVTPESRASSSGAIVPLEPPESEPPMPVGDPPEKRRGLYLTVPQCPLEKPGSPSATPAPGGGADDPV

As for `O=C1O[C@H]([C@@H](O)CO)C(O)=C1O` [ascorbic acid], the “inhibition of Cav3.2 among T-type Ca2+ channels” value is “specifically inhibits”.
